Laboratory results from US20240108618A1, “KRAS G12C INHIBITOR DOSING REGIMENS” (Eli Lilly and Company, priority 2022, published 2024).
Values joined by “and” are separate entries in the source; they are usually repeats but may differ in a detail not shown here. Equal values may be shown once. “Also recorded” adds a separate entry of the source.

What was measured:
H358 lung tumor cells = assay: Anti-tumor growth activity in lung cancer H358 xenograft mouse model; assay type: in vivo
Procedure: H358 lung tumor cells (10×10^6) are implanted by subcutaneous injection in hind leg of nude female mice (Taconic Biosciences). A total of 4 mice in each group are used for the efficacy study. Treatment is initiated with oral administration (gavage) of the test compound or vehicle (20% Captisol®, 25 mM phosphate, pH 2.0 in 0.2 mL volume) once or twice daily for 28 days when the tumor size reaches approximately 300 mg. Tumor growth and body weight are monitored over time to evaluate efficacy and signs of toxicity.

H1373 = H1373 (lung) xenograft model; assay type: in vivo, mouse
Procedure: For xenograft models of H1373, HCC44, MiaPaca-2, SW1463, SW837, KYSE-410 and UM-UC-3, typically 5-10×10^6 cells in a 1:1 matrigel mix (0.2 mL total volume) are implanted by subcutaneous injection in hind leg of nude mice. […] Treatment is initiated with oral administration (gavage) of testing compound or vehicle (20% captisol, 25 mM phosphate, pH2.0) in 0.2 mL volume when tumor size reaches approximately 200-300 mg. Tumor growth and body weight are monitored over time to evaluate efficacy and signs of toxicity. For EL3187 PDX model, frozen vials containing tumor fragments are thawed at 37° C. in a water bath. The tumor fragments are transferred to 50 mL Falcon tube and the ice cold DMEM medium is slowly added into the tube to a total volume of 35 mL. Then the tumor fragments are centrifuged at 130×g for 2 minutes at 4° C. and supernatant is aspirated. This washing step is repeated twice and the tumor fragments are resuspended in 10 mL DMEM for implantation into athymic nude-Foxn1nu mice (Envigo RMS, Inc., Mount Comfort, Indiana). Once tumor volumes reach 800 to 1000 mm^3, animals are sacrificed and tumors are harvested using aseptic technique. Fresh tumors are cut into 10 to 15 mm^3 fragments and placed into cold Gibco hibernate medium. The tumor fragments are subcutaneously implanted into animals with a 10 g trochar needle. When tumor size reaches 200 to 300 mm^3, the animals are randomized for compound treatment.
Among models listed in Table 2, EL3187 is a patient-derived xenograft (PDX) model, and all other are tumor xenograft models.

[1] = system: KRAS G12C-mutant advanced NSCLC; assay: NCT04956640 Phase 1b Cohort B4 (with pembrolizumab) clinical response (BOR, ORR, DCR, DOR, TTR, % change from baseline, treatment duration); assay type: in vivo, human; details: for Time to response (TTR) 2 to <4 months / Time to response (TTR) <2 months: Phase 1b Cohort B4 responders
Procedure: The term “BOR” as used herein refers to best overall response based on investigator assessments using RECIST criteria (version 1.1). The minimum duration for BOR of SD is at least 6 weeks after the date of first dose of study drug.
The term “DOR” as used herein refers to duration of response, wherein DOR in months is calculated as the event or censoring date minus the response start date plus 1 day divided by 30.4375.
The term “ORR” as used herein refers to objective response rate, wherein objective response rate is the proportion of patients with BOR of CR or PR. Objective response rate, unconfirmed, is the proportion of patients with BOR of CR, PR, or uPR.
The term “TTR” as used herein refers to time to response, wherein TTR in months is calculated as response start date minus first dose date plus 1 day divided by 30.4375.

[2] = system: KRAS G12C-mutant advanced solid tumors; assay: NCT04956640 Phase 1a, Phase 1b Cohort B4 and Cohort C2 pooled statements
Text: NCT04956640 includes Phase 1a dose escalation (Part A of NCT04956640, see Table 3) followed by a Phase 1b dose expansion (Parts B to E of NCT04956640, see Table 4). […] Phase 1b dose expansion will include 12 cohorts (See Table 4) to further evaluate safety and clinical activity.

[3] = Phase 1b Cohort B4, Total (N = 13)
[4] = Phase 1b Cohort B4, individual patients, starting dose 50 BID, prior KRAS G12Ci Y
[5] = Phase 1b Cohort B4, individual patients, starting dose 100 BID, no prior KRAS G12Ci, listed as compound of Formula I
[6] = Phase 1b Cohort B4, individual patients, starting dose 150 BID, no prior KRAS G12Ci, listed as compound of Formula I
[7] = Phase 1b Cohort B4, individual patients, starting dose 150 BID, prior KRAS G12Ci Y, listed as compound of Formula I
[8] = Phase 1b Cohort B4, starting dose 50 mg BID (N = 1)
[9] = Phase 1b Cohort B4, starting dose 100 mg BID (N = 6)
[10] = Phase 1b Cohort B4, starting dose 150 mg BID (N = 6)
[11] = starting dose 50 mg BID (N = 1)
[12] = starting dose 100 mg BID (N = 6)
[13] = starting dose 150 mg BID (N = 6)

Compound: C=CC(=O)N1CCN2C(=O)c3cc(F)c(-c4ccc(F)c5sc(N)c(C#N)c45)c(Cl)c3OCC[C@H]2C1 (single isomer, unassigned) [Formula I]
- % Regression (Day 12) (H358 lung tumor cells; 30 mg/kg PO, BID): −72.14%
- % Regression (Day 26) (H358 lung tumor cells; 30 mg/kg PO, BID): −67.68%
- % tumor regression (H358 lung tumor cells; 30 mg/kg twice daily): −67.68 to −72.14%
- animal body weight loss (H358 lung tumor cells; through the whole study): No significant animal body weight loss
- tumor growth inhibition (%) or regression (− %) (H1373; 5 mg/kg BID x28): −26.3%
- tumor growth inhibition (%) or regression (− %) (H1373; 5 mg/kg QD x28): 97.9%
- tumor growth inhibition (%) or regression (− %) (H1373; 10 mg/kg BID x28): −49%
- tumor growth inhibition (%) or regression (− %) (H1373; 10 mg/kg QD x28): −21.3%
- tumor growth inhibition (%) or regression (− %) (H1373; 30 mg/kg QD x28): −49.7%
- Duration of response (DOR) <6 months ([1]; 50 mg BID): 0 (NE) n (%)
- Patients with best overall response of CR or PR ([1]; 50 mg BID (N = 1)): 0 (0.0) N′ (%)
- Duration of response (DOR) <6 months ([1]; 100 mg BID): 2 (100.0) n (%)
- Patients with best overall response of CR or PR ([1]; 100 mg BID (N = 6)): 2 (33.3) N′ (%)
- Duration of response (DOR) <6 months ([1]; 150 mg BID): 3 (100.0) n (%)
- Patients with best overall response of CR or PR ([1]; 150 mg BID (N = 6)): 3 (50.0) N′ (%)
- Best overall response (BOR): Complete Response (CR), % [1, 3]: (0.0) %
- Best overall response (BOR): Not Evaluable (NE), % [1, 3]: (0.0) %
- Best overall response (BOR): Partial Response (PR), % [1, 3]: (38.5) %
- Best overall response (BOR): Partial Response, pending confirmation and ongoing (uPR), % [1, 3]: (30.8) %
- Best overall response (BOR): Progressive Disease (PD), % [1, 3]: (7.7) %
- Best overall response (BOR): Stable Disease (SD), % [1, 3]: (23.1) %
- Disease control rate (CR + PR + IPR + SD), % [1, 3]: (92.3) %
- Objective response rate (CR + PR), % [1, 3]: (38.5) %
- Objective response rate, confirmed and unconfirmed (CR + PR + uPR), % [1, 3]: (69.2) %
- Patients with best overall response of CR or PR [1, 3]: 5 (38.5) N′ (%)
- Time to response (months), Interquartile range [1, 3]: 0.07 months
- Time to response (months), Median [1, 3]: 1.38 months
- % Change from Baseline in Sum of Diameters for all Target Lesions [1, 4]: 1.1%
- Time (months) of Progressive Disease [1, 4]: 1.1 months
- % Change from Baseline in Sum of Diameters for all Target Lesions [1, 5]: 0.0% and −40.9% and −45.1% and −59.4% and −82.8%
- Best Response [1, 5]: PR Pending; also recorded: PR Confirmed
- Time (months) of Partial Response - Confirmed [1, 5]: 1.3 months and 1.1 months
- Time (months) of Partial Response - Pending Confirmation and Ongoing [1, 5]: 1.3 months and 1.4 months
- % Change from Baseline in Sum of Diameters for all Target Lesions ([1]; Phase 1b Cohort B4, individual patients, starting dose 100 BID, prior KRAS G12Ci Y): 0.0%
- % Change from Baseline in Sum of Diameters for all Target Lesions [1, 6]: −29.5% and −38.2% and −49.2% and −57.7%
- Best Response [1, 6]: PR Pending; also recorded: PR Confirmed
- Time (months) of Partial Response - Confirmed [1, 6]: 1.4 months (2×) and 3.0 months
- Time (months) of Partial Response - Pending Confirmation and Ongoing ([1]; Phase 1b Cohort B4, individual patients, starting dose 150 BID, prior KRAS G12Ci Y): 1.1 months
- % Change from Baseline in Sum of Diameters for all Target Lesions [1, 7]: −32.1% and 7.3%
- Best Response [1, 7]: PR Confirmed
- Best overall response (BOR): Complete Response (CR), % [1, 8]: (0.0) %
- Best overall response (BOR): Not Evaluable (NE), % [1, 8]: (0.0) %
- Best overall response (BOR): Partial Response (PR), % [1, 8]: (0.0) %
- Best overall response (BOR): Partial Response, pending confirmation and ongoing (uPR), % [1, 8]: (0.0) %
- Best overall response (BOR): Progressive Disease (PD), % [1, 8]: (100.0) %
- Best overall response (BOR): Stable Disease (SD), % [1, 8]: (0.0) %
- Disease control rate (CR + PR + IPR + SD), % [1, 8]: (0.0) %
- Objective response rate (CR + PR), % [1, 8]: (0.0) %
- Objective response rate, confirmed and unconfirmed (CR + PR + uPR), % [1, 8]: (0.0) %
- Patients with best overall response of CR or PR [1, 8]: 0 (0.0) N′ (%)
- Best overall response (BOR): Complete Response (CR), % [1, 9]: (0.0) %
- Best overall response (BOR): Not Evaluable (NE), % [1, 9]: (0.0) %
- Best overall response (BOR): Partial Response (PR), % [1, 9]: (33.3) %
- Best overall response (BOR): Partial Response, pending confirmation and ongoing (uPR), % [1, 9]: (33.3) %
- Best overall response (BOR): Progressive Disease (PD), % [1, 9]: (0.0) %
- Best overall response (BOR): Stable Disease (SD), % [1, 9]: (33.3) %
- Disease control rate (CR + PR + IPR + SD), % [1, 9]: (100.0) %
- Objective response rate (CR + PR), % [1, 9]: (33.3) %
- Objective response rate, confirmed and unconfirmed (CR + PR + uPR), % [1, 9]: (66.7) %
- Patients with best overall response of CR or PR [1, 9]: 2 (33.3) N′ (%)
- Time to response (months), Interquartile range [1, 9]: 0.26 months
- Time to response (months), Median [1, 9]: 1.22 months
- Best overall response (BOR): Complete Response (CR), % [1, 10]: (0.0) %
- Best overall response (BOR): Not Evaluable (NE), % [1, 10]: 0.0%
- Best overall response (BOR): Partial Response (PR), % [1, 10]: (50.0) %
- Best overall response (BOR): Partial Response, pending confirmation and ongoing (uPR), % [1, 10]: (33.3) %
- Best overall response (BOR): Progressive Disease (PD), % [1, 10]: (0.0) %
- Best overall response (BOR): Stable Disease (SD), % [1, 10]: (16.7) %
- Disease control rate (CR + PR + IPR + SD), % [1, 10]: (100.0) %
- Objective response rate (CR + PR), % [1, 10]: (50.0) %
- Objective response rate, confirmed and unconfirmed (CR + PR + uPR), % [1, 10]: (83.3) %
- Patients with best overall response of CR or PR [1, 10]: 3 (50.0) N′ (%)
- Time to response (months), Interquartile range [1, 10]: 1.61 months
- Time to response (months), Median [1, 10]: 1.41 months
- Time to response (TTR) 2 to <4 months ([1]; Total (N = 13)): 1 (20.0) n (%)
- Time to response (TTR) <2 months ([1]; Total (N = 13)): 4 (80.0) n (%)
- Time to response (TTR) 2 to <4 months [1, 11]: 0 (NE) n (%)
- Time to response (TTR) <2 months [1, 11]: 0 (NE) n (%)
- Time to response (TTR) 2 to <4 months [1, 12]: 0 (0.0) n (%)
- Time to response (TTR) <2 months [1, 12]: 2 (100.0) n (%)
- Time to response (TTR) 2 to <4 months [1, 13]: 1 (33.3) n (%)
- Time to response (TTR) <2 months [1, 13]: 2 (66.7) n (%)
- Duration of response (DOR) <6 months ([1]; Total): 5 (100.0) n (%)
- Patients with best overall response of CR or PR ([1]; Total (N = 13)): 5 (38.5) N′ (%)
- median time to response ([1]; human, in vivo): 1.4 month
- DLTs ([2]; as of January 2023): No DLTs were observed
- MTD ([2]; as of January 2023): MTD was not reached
- patients with a grade 3 or greater TEAE ([2]; as of January 2023): four
- patients with dose reduction due to TRAE ([2]; as of January 2023): one
- patients with permanent discontinuation due to TRAE ([2]; as of January 2023): one
- TRAE grade in seven patients who discontinued a prior KRAS G12C inhibitor due to toxicity ([2]; in vivo): ≤ 2 grade
- median time to response ([2]; in vivo): 1.4 month
